# Target: JNK3 (Homo sapiens, UniProt P53779)
# Experiment: JNK3 in vitro assay (33P incorporation into c-jun, SPA)
# Type: biochemical
# Conditions: recombinant pre-activated GST-JNK3, biotinylated GST-c-Jun, 2 μM 33γ-ATP, 120 min R.T.; read-out: inhibition (IC50) with regard to JNK3
# Description: The phosphorylation of c-jun by JNK2 or JNK3 can be followed by monitoring the incorporation of ^33P into c-jun following the protocol below. The inhibitory activity of the compounds according to formula I, towards c-jun phosphorylation through JNK, is determined by calculating phosphorylation activity in the presence or absence of compounds according to formula I.
# JNK3 and/or -2 assays are performed in 96 well MTT plates: incubation of 0.5 μg of recombinant, pre-activated GST-JNK3 or GST-JNK2 with 1 μg of recombinant, biotinylated GST-c-Jun and 2 μM ^33γ-ATP (2 nCi/μl), in the presence or absence of compounds according to formula I and in a reaction volume of 50 μl containing 50 mM Tris-HCl, pH 8.0; 10 mM MgCl2; 1 mM Dithiothreitol, and 100 μM Na3VO4. The incubation is performed for 120 min. at R.T and stopped upon addition of 200 μl of a solution containing 250 μg of Streptavidine-coated SPA beads (Amersham, Inc.)*, 5 mM EDTA, 0.1% Triton-X-100 and 50 μM ATP, in phosphate saline buffer. After incubation for 60 minutes at RT, beads are sedimented by centrifugation at 1500×g for 5 minutes, resuspended in 200 μl of PBS containing 5 mM EDTA, 0.1% Triton X-100 and 50 μM ATP and the radioactivity measured in a scintillation β counter, following sedimentation of the beads as described above. […]
# JNK3, sequence (P53779 whole entry, species assumed): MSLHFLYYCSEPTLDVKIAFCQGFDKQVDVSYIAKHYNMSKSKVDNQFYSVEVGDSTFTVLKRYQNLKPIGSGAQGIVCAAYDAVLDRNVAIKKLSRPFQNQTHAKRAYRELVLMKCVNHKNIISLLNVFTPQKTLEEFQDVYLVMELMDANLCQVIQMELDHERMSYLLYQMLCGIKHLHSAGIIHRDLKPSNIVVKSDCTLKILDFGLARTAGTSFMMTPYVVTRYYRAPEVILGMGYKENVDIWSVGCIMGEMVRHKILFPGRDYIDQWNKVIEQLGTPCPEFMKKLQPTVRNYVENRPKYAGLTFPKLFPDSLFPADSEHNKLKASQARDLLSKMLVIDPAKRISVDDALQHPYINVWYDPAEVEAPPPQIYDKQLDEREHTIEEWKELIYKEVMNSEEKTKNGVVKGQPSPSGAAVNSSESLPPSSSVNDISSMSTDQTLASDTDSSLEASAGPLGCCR
row,IC50,Compound
1,188 nM,"CN(CCCNCc1ccc(C(F)(F)F)cc1)S(=O)(=O)c1ccc(CNC(=O)c2ccc(Cl)cc2)s1 [Compound 13, 4-Chloro-N-(5-{methyl-[3-(4-trifluoromethyl-benzylamino)-propyl]-sulfamoyl}-thiophen-2-ylmethyl)-benzamide]"
2,184 nM,"CCCCCCNCCCN(C)S(=O)(=O)c1ccc(CNC(=O)c2ccc(Cl)cc2)s1 [Compound 14, 4-Chloro-N-{5-[(3-hexylamino-propyl)-methyl-sulfamoyl]-thiophen-2-ylmethyl}-benzamide]"

# — US7683078B2, “Arylsulfonamide derivatives as C-Jun-N-Terminal Kinases (JNK's) inhibitors” (Laboratoires Serono S.A., priority 2001, dated 2010)
